# Laboratory results as given in patent US6749804B2, “Process for treating animal habitats” (H & S Chemical Company, Inc., priority 2000, dated 2004).
# Tests used:
# [1] = system: hog waste total bacterial content; assay: Percent kill in hog waste mixed with TCM solutions; assay type: cell-based
# Description: 9. Test were conducted on hog waste, 3 gallons of hog waste feces, urine and spillage were prepared. […] Various solution samples of TCM solutions were prepared and mixed with the 3 gallon samples. The percent kill of these various samples was in accordance with Table III.
# e.Coli = assay: Feces sample from animal bedding tested for e.Coli by independent laboratory; conditions: Example 8: 190 ppm TCM washdown; 16,000 poults; feces sample at eight weeks
# Description: (§1) 8. A turkey house was prepared by spraying all surfaces with a solution of TCM. New wood chip bedding was then applied. The concentration was 10 pounds of TCM in 1,600 gallons of water or 190 ppm., 16,000 young poults (turkeys) were then placed in the poultry house for a 100 day grow out.
# (§2) The purpose of this application was to compare e.Coli and salmonella results in a controlled environment as an alternative to formaldehyde, the current sanitizing method used by the poultry industry. At eight weeks of the grow out period after the wash down and the placement of the young poults, a feces sample was acquired from the animal bedding to determine disease levels from both the test poultry house and the control poultry house of Example 1. An independent laboratory tested the two samples.
# chickens = assay: Chicken grow out in 20,000 Ft^2 poultry house; assay type: in vivo
# Description: (§3) The present invention is illustrated by the following Examples however, these Examples are not to be construed as limiting the invention.
# 3. (Prior art) A poultry house was prepared by cleaning out the used animal bedding (shaved wood chips) The poultry house was then sprayed with a maximum formulation of formaldehyde. After a 72 hour drying period new shaved wood chips were spread in the poultry house and stocked with 19,000 thousand chickens, temperature of the house was maintained at 74% F±4 degrees F. for the term of the grow out. The terms of the grow out was 45 days, average moisture content in the bedding was maintained below 14%. Average relative humidity in the house atmosphere ranged from 40% to 84%.
# After two weeks, 200 pounds of alum (aluminum sulfate) was spread evenly on top of the shaved wood chips and dispersed throughout.
# 7. A poultry house was prepared by using used bedding material. The used animal bedding (shaved wood chips) and manure had been in use for 18 months without removal. A direct spray on application consisting of a solution of one pound of TCM per 125 gallons of water or 100 ppm was sprayed on top of the used animal bedding. 19,000 young chickens were placed in the poultry house. The average temperature of the house was maintained at 78 degrees F. for the term of the grow out. Average moisture content in the bedding was maintained below 14%. The term of the grow out was 39 days.
# Other avian diseases = assay: Feces sample from animal bedding tested for other avian diseases; conditions: Example 8: 190 ppm TCM washdown; feces sample at eight weeks
# Description: as §1, §2
# poults (turkeys) = assay: Turkey grow out in 20,000 Ft^2 poultry house; assay type: in vivo
# Description: as §3
# 4. (Prior art) a poultry house was prepared by cleaning out the used animal bedding (shaved wood chips). The poultry house was then sprayed with a maximum formulation of formaldehyde. After a 72 hour drying period, new shaved wood chips were spread in the poultry house and stocked with 15,000 thousand poults (turkeys). The temperature of the house was maintained at 74°% F±4 degrees F. for the term of the grow out. The term of the grow out was 100 days, average moisture content in the bedding was maintained below 14%. Average relative humidity in the house atmosphere ranged from 40% to 84%.
# After two to three weeks, 200 pounds of alum (or aluminum sulfate) was spread evenly on top of the shaved wood chips and dispersed throughout.
# 5. A poultry house was prepared by spraying all house surfaces (ceiling, walls, and padding/floor) with a solution of 2 pounds of 18.7% formulated TCM per 300 gallons of water. The concentration of the TCM for the washdown was 200 ppm. 12,000 young poults (turkeys) were then placed in the poultry house for a 100-day grow out. The average temperature of the house was maintained at 78° F.±4 degrees for the term of the grow out. The bedding material used was shaved wood chips. Average moisture content in the bedding was maintained below 14%. Average humidity in the house atmosphere ranged from 40% to 68%. The term of the grow out was 100 days.
# 6. A poultry house was prepared by spraying all house surfaces (ceiling, walls, and padding) after a complete cleanout of previous used wood shavings and manure, with a solution of 2 pounds of 18.7% TCM formulation to 300 gallons of water. The concentration of TCM for the washdown was 200 ppm. 6000 young poults (turkeys) were placed on 3 tons of fresh shaved wood chips in the poultry house. A direct spray-on application of the TCM formulation was sprayed on the new wood shavings and allowed to dry. The solution consisted of 1 pound of formulated TCM to 125 gallons of water or 100 ppm. The average temperature inside the poultry house was maintained at 80 degrees±4 degrees F. for the term of the grow out. Average moisture content in the bedding was maintained below 14%. Average relative humidity in the house atmosphere ranged from 50% to 85%. The term of the grow out was 100 days. The poultry house was retreated via a direct spray-on of the formulated TCM was applied to the bedding material at week 10 of the grow out period for the same batch of turkey poults. The concentration of the TCM in solution was 1 pound of formulated TCM per 125 gallons of water.
# salmonella = assay: Feces sample from animal bedding tested for salmonella by independent laboratory; conditions: Example 8: 190 ppm TCM washdown; 16,000 poults; feces sample at eight weeks
# Description: as §1, §2
# [2] = Example 7: 100 ppm TCM sprayed on 18 month used bedding, 19,000 chickens, 39 days
# [3] = Example 5: house surfaces sprayed with 200 ppm TCM, 12,000 poults, 100-day grow out
# [4] = Example 6: 200 ppm TCM washdown, 100 ppm spray on new wood shavings, retreated at week 10, 6000 poults, 100 days
# [5] = Example 3 (prior art): formaldehyde spray, new wood chips, 200 pounds of alum after two weeks, 19,000 chickens, 45 days
# [6] = Example 4 (prior art): formaldehyde spray, new wood chips, 200 pounds of alum after two to three weeks, 15,000 poults, 100 days
molecule,measurement,setting,value
trichloromelamine [TCM],PERCENT KILL,[1]; 0.25 oz. in 3 gallons of hog waste,99.997%
same,PERCENT KILL,[1]; 0.50 oz. in 3 gallons of hog waste,99.9995%
same,PERCENT KILL,[1]; 0.75 oz. in 3 gallons of hog waste,99.998%
same,PERCENT KILL,[1]; 1.0 oz. in 3 gallons of hog waste,99.9998%
same,PERCENT KILL,[1]; 2.0 oz. in 3 gallons of hog waste,99.9996%
same,PERCENT KILL,[1]; 3.0 oz. in 3 gallons of hog waste,>99.9998%
same,PERCENT KILL,[1]; 4.0 oz. in 3 gallons of hog waste,>99.9998%
same,e.Coli in the animal bedding material,e.Coli,no e.Coli or salmonella
same,weight gains of the chickens versus control poultry house,chickens; Example 7: 100 ppm TCM on used bedding vs control house treated with alum,insignificant difference
same,average weight,chickens; [2],4 pounds
same,bird mortality rate,chickens; [2],1.1%
same,birds condemned at the poultry processing facility,chickens; [2],0.04%
same,other avian diseases in the animal bedding material,Other avian diseases,not in the TCM test house
same,bird mortality,poults (turkeys); [3],2.7%
same,birds condemned at the processing facility,poults (turkeys); [3],1.7%
same,weight gain for the turkeys,poults (turkeys); [3],24.3 pounds
same,bird mortality,poults (turkeys); [4],0.7%
same,birds condemned at the poultry processing facility,poults (turkeys); [4],1.4%
same,weight gain for the birds,poults (turkeys); [4],23.9 pounds
same,salmonella in the animal bedding material,salmonella,no e.Coli or salmonella
"C=O [formaldehyde, reference compound]",average weight gain for the chickens,chickens; [5],3.96 pounds
same,bird mortality rate,chickens; [5],3.56%
same,percentage of birds condemned at the processing facility,chickens; [5],0.15%
same,average weight gain for the turkeys,poults (turkeys); [6],21.8 pounds
same,bird mortality rate,poults (turkeys); [6],8.1%
same,birds condemned at the processing facility,poults (turkeys); [6],2.3%
